Legend:
[1] = system: acetic acid-induced writhings; assay: Whittle's method: acetic acid-induced writhings; type: in vivo, Male ICR-Mice
Procedure: (§1) Male ICR-Mice (weighting 25-35 g.), one group being 12 mice, fasted overnight were used in this test. The sample was orally administered, and 20 minutes after, 5 ml./Kg. of 0.4% Evance blue was injected intravenously and further 10 minutes after, 10 ml./Kg. of 0.6% acetic acid was injected intraperitoneally. The number of writhings after 20 minutes since the administration of acetic acid was recorded and further 10 minutes after since then, the mice were killed by dislocation of the neck, the dye leaked in the abdominal cavity was washed out with 5 ml. of 0.9% saline to make the total amount 10 ml., and thereafter furs, blood corpuscles, etc., intermingled were removed by centrifugal separation at 3,000 r.p.m. for 5 minutes. Furthermore, for preventing turbidity caused by protein, 0.1 ml. of an aqueous 0.1 normal sodium hydroxide was added and then the absorbance at 590 nm was measured. The inhibition ratio of the sample administered rat groups to control groups was calculated.
(§2) In addition, the test samples used in the aforesaid tests (a), (b), (c) and (d) were prepared by suspending the test compounds, in the cases of using the compounds of Test Nos. 1-12 and phenylbutazone, in an aqueous 0.5% methyl cellulose solution, dissolving the test compounds, in the cases of using aminopyrine, in distilled water.

[2] = system: Carrageenin-induced edema; assay: Carrageenin-induced edema (Winter's method); type: in vivo, Male Wister rats; conditions: oral, one hour before carrageenin, edema 3 hours after injection
Procedure: Male Wister rats (weighting 130-170 g.), one group being 6 rats, fasted overnight were used. According to Winter's method [Proc. Soc. […] After 3 hours, each rat was sacrificed by chloroform and the hind paw was cut and weighed immediately. By using the value obtained by subtracting the weight of the untreated hind paw from the weight of the hind paw having injected thereto the carrageenin as the weight of edema, the inhibitory ratio of the sample administered rat groups to control groups was calculated. The sample was orally administered before one hour of the injection of carrageenin.
as §2

[3] = system: Permeability (dye leakage into abdominal cavity); assay: Whittle's method: permeability (dye leaked in the abdominal cavity); type: in vivo, Male ICR-Mice
Procedure: as §1, §2

[4] = system: Hyperthermia caused by Brewer's yeast; assay: Antipyretic effect (Brewer's yeast hyperthermia); type: in vivo, Male Wister rats; design: key: rectal body temperature in °C; conditions: in °C (unit assumed)
Procedure: Male Wister rats (weighting 130-150 g.), one group being 5 rats, were used. Hyperthermia was caused by subcutaneous injection of 2 ml./rat of 20% Brewer's yeast suspension. 18 hours later, the rats showing a rise in temperature exceeding 1° C. were selected and allocated into groups each consisting of 5 rats. The sample was orally administered and then the body temperature was measured with the passage of time for 6 hours since then. In addition, the body temperature was measured by measuring the temperature in the rectum by means of a thermister thermometer.
as §2

[5] = Acute toxicity; type: in vivo, Male Wister rats; conditions: 500 mg/kg oral, observed 7 days; deaths/animals
Procedure: Male Wister rats (weighting 130-170 g.), one group being 5 rats, fasted overnight were used in this test.
as §2

[6] = 1 hour, 50mg/kg P.O., * significantly different from before administration (P<0.05)
[7] = 2 hours, 50mg/kg P.O., * significantly different from before administration (P<0.05)
[8] = 4 hours, 50mg/kg P.O., * significantly different from before administration (P<0.05)
[9] = 6 hours, 50mg/kg P.O., * significantly different from before administration (P<0.05)
[10] = before administration, group dosed 50mg/kg P.O.

| Compound | Inhibition, Writhings ([1]; 50mg/kg P.O.) [%] | Inhibition (carrageenin-induced edema) ([2]; 25 mg/kg) [%] | Inhibition, Permeability ([3]; 50mg/kg P.O.) [%] | Inhibition (carrageenin-induced edema) ([2]; 50 mg/kg) [%] | also measured |
| --- | --- | --- | --- | --- | --- |
| 2-acetoxy-5-oxo-2,3-dihydro-5H-thiazolo[3,2-b]isoquinoline [Example 9] | 82.9 | 53.4 |  |  |  |
| 3-methyl-5-oxo-2,3-dihydro-5H-thiazolo[3,2-b]isoquinoline [Example 1] | 57.8 |  | 21.3 |  | Inhibition, Writhings ([1]; 25mg/kg P.O.): 24.8%; Inhibition, Permeability ([3]; 25mg/kg P.O.): 26.2% |
| 5-oxo-2,3-dihydro-5H-thiazolo[3,2-b]isoquinoline-1,1-dioxide [Example 8] |  | 57.5 | 23.5 |  |  |
| 5-oxo-5H-thiazolo[3,2-b]isoquinoline [Example 10] | 91.6 | 58.0 | 32.4 |  |  |
| 5-oxo-5H-thiazolo[3,2-b]isoquinoline-1,1-dioxide [Example 5] |  | 55.3 | 36.0 | 67.2 | Inhibition, Permeability ([3]; 25mg/kg P.O.): 22.6% |
| 6-oxo-2,3-dihydro-2H,6H-1,3-oxazino[3,2-b]isoquinoline [Example 2] | 14.4 | 41.7 | 20.1 | 71.2 | Inhibition, Writhings ([1]; 25mg/kg P.O.): 22.6%; Inhibition, Permeability ([3]; 25mg/kg P.O.): 4.7% |
| 6-oxo-3,4-dihydro-2H,6H-1,3-thiazino[3,2-b]isoquinoline [Example 3] | 67.5 | 47.0 | 37.0 | 74.0 |  |
| 6-oxo-3,4-dihydro-2H,6H-1,3-thiazino[3,2-b]isoquinoline-1,1-dioxide [Example 7] | 69.5 | 57.0 | 38.6 |  |  |
| 6-oxo-3,4-dihydro-2H,6H-1,3-thiazino[3,2-b]isoquinoline-1-oxide [Example 6] | 28.8 | 57.1 | 37.1 |  |  |
| Cc1c(N(C)C)c(=O)n(-c2ccccc2)n1C [Aminopyrine, reference compound] | 58.1 |  | 41.7 |  | Rectal temperature (mean±SE) [4, 6]: 37.92±0.09; Rectal temperature (mean±SE) [4, 7]: 37.49±0.10; Rectal temperature (mean±SE) [4, 8]: 37.39±0.07; Rectal temperature (mean±SE) [4, 9]: 37.76±0.19; Rectal temperature (mean±SE) [4, 10]: 39.24±0.14; Inhibition, Writhings ([1]; 25mg/kg P.O.): 29.6%; Inhibition, Permeability ([3]; 25mg/kg P.O.): 28.5% |
| O=c1c2ccccc2cc2n1CC[S+]2[O-] (stereo not drawn) [Example 4, 5-oxo-2,3-dihydro-5H-thiazolo[3,2-b]isoquinoline-1-oxide] | 39.7 | 41.2 | 41.1 | 65.1 | Inhibition, Writhings ([1]; 25mg/kg P.O.): 29.1%; Inhibition, Permeability ([3]; 25mg/kg P.O.): 22.1% |
| CCCCC1C(=O)N(c2ccccc2)N(c2ccccc2)C1=O [Phenylbutazone, reference compound] |  | 29.4 |  | 44.5 |  |
| O=c1c2ccccc2cc2n1CCCS2 [Test No. 1] |  | 54.8 |  | 69.8 | Rectal temperature (mean±SE) [4, 6]: 38.72±0.13; Rectal temperature (mean±SE) [4, 7]: 38.20±0.15; Rectal temperature (mean±SE) [4, 8]: 37.39±0.23; Rectal temperature (mean±SE) [4, 9]: 37.44±0.32; Rectal temperature (mean±SE) [4, 10]: 39.26±0.19 |
| O=c1c2ccccc2cc2n1CCCS2(=O)=O [Test No. 2] |  |  |  |  | Rectal temperature (mean±SE) [4, 6]: 39.04±0.23; Rectal temperature (mean±SE) [4, 7]: 38.41±0.21; Rectal temperature (mean±SE) [4, 8]: 37.32±0.31; Rectal temperature (mean±SE) [4, 9]: 37.55±0.33; Rectal temperature (mean±SE) [4, 10]: 38.94±0.14 |
| CC1CSc2cc3ccccc3c(=O)n21 (stereo not drawn) [Test No. 3] |  |  |  |  | Number of death [5]: 3/5 |
| O=c1c2ccccc2cc2n1CCC[S+]2[O-] (stereo not drawn) [Test No. 5] |  |  |  |  | Number of death [5]: 3/5 |
| O=Cc1c2n(c(=O)c3ccccc13)CCCS2 [Test No. 11] |  | 45.9 |  |  |  |
